System: murine leukaemia L1210
Assay: Murine leukaemia L1210 in vitro cytotoxicity (Microculture Tetrazolium Assay)
Format: cell-based
Settings: L1210, exposure 48 hours (four doubling periods); read-out: IC50, the cytotoxic concentration that inhibits proliferation of treated cells by 50%
Method: The murine leukaemia L1210 was used in vitro. The cells are cultured in complete RPMI 1640 culture medium comprising 10% foetal calf serum, 2 mM glutamine, 50 units/ml of penicillin, 50 μg/ml of streptomycin and 10 mM Hepes, pH 7.4. The cells are distributed on microplates and are exposed to the cytotoxic compounds for four doubling periods, that is to say 48 hours. The number of viable cells is then quantified by a colorimetric assay, the Microculture Tetrazolium Assay (J. Carmichael et al., Cancer Res., 47, 936-942, (1987)). The results are expressed as IC50, the cytotoxic concentration that inhibits proliferation of treated cells by 50%.

SMILES	IC50
COC1C(CO)OC2C(C1O)n1c3ccc(Br)cc3c3c4c(c5c6cc(Br)ccc6n2c5c31)C(=O)NC4=O [Example 19, 3,9-Dibromo-12,13-[1,2-(4—O-methyl-β-D-mannopyranosyl)]-6,7,12,13-tetrahydro-(5H)-indolo[2,3-a]pyrrolo[3,4-c]carbazole-5,7-dione]	140 nM
COC1C(CO)OC2C(C1O)n1c3ccc([N+](=O)[O-])cc3c3c4c(c5c6cc([N+](=O)[O-])ccc6n2c5c31)C(=O)NC4=O [Example 13, 3,9-Dinitro-12,13-[1,2-(4—O-methyl-β-D-mannopyranosyl)]-6,7,12,13-tetrahydro-(5,H)-indolo[2,3-a]pyrrolo[3,4-c]carbazole-5,7-dione]	130 nM

Source: patent US6569858B2, “12,13-(pyranosyl)-indolo[2,3-a]pyrrolo[3,4-c]carbazole and 12,13-(pyranosyl)-furo[3,4-c]indolo[2,3-a]carbazoles” (Les Laboratoires Servier, priority 1999, dated 2003)
